Assay results reported in PMC12463105, “NSP7 Molecular Degrader Attenuates Coronaviral Infection Through the β‐TrCP1/FBXO5 Axis” (Advanced Science, 2025).

Legend:
SARS-CoV-2 NSP7-HiBiT = conditions: read-out: NSP7- HiBiT; reduction of NSP7-HiBiT signal; degrader
HCoV-OC43 = tested on: T1, HCoV-OC43; experiment: microbe, parasite or virus in culture; parameters: HCoV-OC43 infection assay, reduction of viral infection; conditions: Betacoronavirus 1, OC43, read-out: OC43
T1 construct: ATCC VR-1558

Row | SMILES | IC50 (SARS-CoV-2 NSP7-HiBiT) [µM] | IC50 (HCoV-OC43) [µM]
1 | CCOCCCNC(=O)Nc1nc(SCC)ns1 [BC24875, 5-[3-(3-ethoxypropyl)ureido]-3-(ethylthio)-1,2,4-thiadiazole] | > 100 | > 100
2 | CCSc1nsc(NC(=O)Nc2ccc(Cl)c(C(F)(F)F)c2)n1 [BC24852, 5-{3-[4-chloro-3-(trifluoromethyl)phenyl]ureido}-3-(ethylthio)-1,2,4-thiadiazole] | 2.76 | 0.907
3 | CCSc1nsc(NC(=O)Nc2cccc(F)c2)n1 [BC24895, 3-(ethylthio)-5-[3-(m-fluorophenyl)ureido]-1,2,4-thiadiazole] | 8.87 | 2.53
4 | CCOC(=O)CCNC(=O)Nc1nc(SCC)ns1 [BC24897, ethyl 3-{3-[3-(ethylthio)-1,2,4-thiadiazol-5-yl]ureido}propionate] | > 100 | > 100
5 | CCSc1nsc(NC(=O)Nc2ccc3c(c2)CCC3)n1 [BC24915, 3-(ethylthio)-5-[3-(5-indanyl)ureido]-1,2,4-thiadiazole] | 34 | 17.4
6 | CCSc1nsc(NC(=O)Nc2ccc3c(c2)OCCO3)n1 [BC24880, 5-[3-(2,3-dihydro-1,4-benzodioxin-6-yl)ureido]-3-(ethylthio)-1,2,4-thiadiazole] | 33.1 | 21.2
7 | CCSc1nsc(NC(=O)Nc2cccc(Cl)c2)n1 [BC24842, 5-[3-(m-chlorophenyl)ureido]-3-(ethylthio)-1,2,4-thiadiazole] | 2.15 | 1.56
8 | CCSc1nsc(NC(=O)Nc2ccccc2)n1 [BC24844, 3-(ethylthio)-5-(3-phenylureido)-1,2,4-thiadiazole] | 9.37 | 9.06
9 | CCOC(=O)CNC(=O)Nc1nc(SCC)ns1 [BC24868, ethyl {3-[3-(ethylthio)-1,2,4-thiadiazol-5-yl]ureido}acetate] | > 100 | > 100
10 | CCSc1nsc(NC(=O)Nc2c(C)cccc2C)n1 [BC24905, 3-(ethylthio)-5-[3-(2,6-xylyl)ureido]-1,2,4-thiadiazole] | 22.1 | 15.8
11 | CCSc1nsc(NC(=O)Nc2cccc(Cl)c2C)n1 [BC24862, 5-[3-(3-chloro-2-tolyl)ureido]-3-(ethylthio)-1,2,4-thiadiazole] | 7 | 5.68
12 | CCSc1nsc(NC(=O)Nc2ccccc2Cl)n1 [BC24843, 5-[3-(o-chlorophenyl)ureido]-3-(ethylthio)-1,2,4-thiadiazole] | 26.2 | 16.2
13 | CCSc1nsc(NC(=O)Nc2cccc(C(F)(F)F)c2)n1 [BC24877] | 0.9 | 0.733
14 | CCOc1ccc(NC(=O)Nc2nc(SCC)ns2)cc1 [BC24859, 5-[3-(p-ethoxyphenyl)ureido]-3-(ethylthio)-1,2,4-thiadiazole] | > 100 | 52.1
15 | CCSc1nsc(NC(=O)Nc2ccc(C)cc2)n1 [BC24854, 3-(ethylthio)-5-[3-(p-tolyl)ureido]-1,2,4-thiadiazole] | 45.1 | 26.6
16 | CCSc1nsc(NC(=O)NCc2cccc(F)c2)n1 [BC24904, 3-(ethylthio)-5-{3-[(m-fluorophenyl)methyl]ureido}-1,2,4-thiadiazole] | > 100 | > 100
17 | CCSc1nsc(NC(=O)NCc2ccc(F)cc2)n1 [BC24886, 3-(ethylthio)-5-{3-[(p-fluorophenyl)methyl]ureido}-1,2,4-thiadiazole] | > 100 | > 100
18 | CCSc1nsc(NC(=O)NCc2cccc(OC)c2)n1 [BC24883, 3-(ethylthio)-5-{3-[(m-methoxyphenyl)methyl]ureido}-1,2,4-thiadiazole] | > 100 | 67.8

Row | SMILES | IC50 (SARS-CoV-2 NSP7-HiBiT) [µM] | IC50 (HCoV-OC43) [µM]
19 | CCSc1nsc(NC(=O)NCc2ccc(C)cc2)n1 [BC24879, 3-(ethylthio)-5-{3-[(p-tolyl)methyl]ureido}-1,2,4-thiadiazole] | 27.6 | 13.3
20 | CCSc1nsc(NC(=O)Nc2ccccc2OC)n1 [BC24840, 3-(ethylthio)-5-[3-(o-methoxyphenyl)ureido]-1,2,4-thiadiazole] | > 100 | 11.5
21 | CCSc1nsc(NC(=O)Nc2ccc(C)c(F)c2)n1 [BC24873, 3-(ethylthio)-5-[3-(3-fluoro-4-tolyl)ureido]-1,2,4-thiadiazole] | 8.51 | 7.74
22 | CCSc1nsc(NC(=O)Nc2cccc(SC)c2)n1 [BC24888, 3-(ethylthio)-5-{3-[m-(methylthio)phenyl]ureido}-1,2,4-thiadiazole] | 9.09 | 5.27
23 | CCSc1nsc(NC(=O)Nc2ccc(C)cc2Cl)n1 [BC24851, 5-[3-(2-chloro-4-tolyl)ureido]-3-(ethylthio)-1,2,4-thiadiazole] | > 100 | 17.4
24 | CCSc1nsc(NC(=O)Nc2ccc(OC)cc2C)n1 [BC24916, 3-(ethylthio)-5-[3-(4-methoxy-2-tolyl)ureido]-1,2,4-thiadiazole] | > 100 | 17.2
25 | CCSc1nsc(NC(=O)NC2CCCCC2)n1 [BC24894, 5-(3-cyclohexylureido)-3-(ethylthio)-1,2,4-thiadiazole] | 23.7 | 17.5
26 | CCOc1ccccc1NC(=O)Nc1nc(SCC)ns1 [BC24858, 5-[3-(o-ethoxyphenyl)ureido]-3-(ethylthio)-1,2,4-thiadiazole] | > 100 | 24.3
27 | CCSc1nsc(NC(=O)Nc2ccccc2[N+](=O)[O-])n1 [BC24846, 3-(ethylthio)-5-[3-(o-nitrophenyl)ureido]-1,2,4-thiadiazole] | 24.3 | 11.4
28 | CCSc1nsc(NC(=O)Nc2ccccc2C)n1 [BC24855, 3-(ethylthio)-5-[3-(o-tolyl)ureido]-1,2,4-thiadiazole] | 35.2 | 8.23
29 | CCSc1nsc(NC(=O)NC(C)C)n1 [BC24891, 3-(ethylthio)-5-(3-isopropylureido)-1,2,4-thiadiazole] | > 100 | > 100
30 | CCSc1nsc(NC(=O)NC[C@H]2CCCO2)n1 [BC24887, 3-(ethylthio)-5-(3-{[(R)-perhydro-2-furyl]methyl}ureido)-1,2,4-thiadiazole] | > 100 | > 100
31 | CCSc1nsc(NC(=O)N[C@@H](C)CC)n1 [BC24892, 5-{3-[(S)-1-methylpropyl]ureido}-3-(ethylthio)-1,2,4-thiadiazole] | > 100 | > 100
32 | CCOC(=O)Cc1ccc(NC(=O)Nc2nc(SCC)ns2)cc1 [BC24865, ethyl (p-{3-[3-(ethylthio)-1,2,4-thiadiazol-5-yl]ureido}phenyl)acetate] | 27.8 | 10.7
33 | CCSc1nsc(NC(=O)NCCOC)n1 [BC24899, 3-(ethylthio)-5-[3-(2-methoxyethyl)ureido]-1,2,4-thiadiazole] | > 100 | > 100
34 | CCSc1nsc(NC(=O)NCCC(=O)OC)n1 [BC24874, methyl 3-{3-[3-(ethylthio)-1,2,4-thiadiazol-5-yl]ureido}propionate] | > 100 | 84.2
35 | CCSc1nsc(NC(=O)Nc2cccc(Br)c2)n1 [BC24860, 5-[3-(m-bromophenyl)ureido]-3-(ethylthio)-1,2,4-thiadiazole] | 1.18 | 1.18
36 | CCCCc1ccc(NC(=O)Nc2nc(SCC)ns2)cc1 [BC24908, 5-[3-(p-butylphenyl)ureido]-3-(ethylthio)-1,2,4-thiadiazole] | 30 | 18.3
